In patent publication US20220315591A1, “NEW EGFR INHIBITORS” (Hoffmann-La Roche Inc., priority 2019, published 2022):

Target: T1, EGFR TMLRCS (BaF3-TMLRCS cell line) (Homo sapiens, UniProt P00533, C797S/L858R/T790M)
T1 construct: host or cells: Ba/F3 (BaF3-TMLRCS), puromycin-selected
Test: HTRF Phospho EGFR TMLRCS assay (cellular)
Assay type: cell-based
Details: BaF3-TMLRCS cells, 4 hours incubation
Experimental: HTRF Phospho EGFR TMLRCS Assay (Cellular)
BaF3-TMLRCS cell line were obtained from Crownbio (San Diego, Calif., USA). Cells were maintained at 37° C., 5% CO2 in RPMI ATCC (Gibco 31870)+2 mM Glutamine+0.5 μg/ml Puromycin supplemented with 10% fetal bovine serum (FBS) (Gibco).
Cells are transferred as above to Greiner Bio-One, Nr. 784-08 micro-titerplate at 20000 cells/well in 12.5 μl of growth medium/well after the plates had been pre-filled with 12.5 nl of DMSO solutions of the to be tested compounds (in dose response) or DMSO only. After spinning the plates at 300×g for 30 seconds the cells were incubated for 4 hours at 37 C, 5% CO2, 95% humidity. The cells were lysed by adding to the compound mix 4 μl/well of the supplemented lysis buffer (Cis-bio, Phospho-EGFR HTRF kit, 64EG1PEH), followed by incubation for 30 min at room temperature with shaking (400 rpm). The plates were then frozen and stored overnight at −80 C. On the next day and after thawing the plates, 4 μl of a mixture of anti-Phospho-EGFR Cryptate and of anti-Phospho-EGFR-d2 antibody solutions prepared in the supplied detection buffer was added to each well. The lidded plates were then incubated for 4 h at room temperature before reading the fluorescence emission at 616 and 665 nm using an Envision reader (Perkin Elmer). Data was analyzed in similar fashion as above using the normalized ratio of the 665 to 616 signals multiplied by 10000.

T1 sequence (P00533 25-1210 T790M/C797S/L858R): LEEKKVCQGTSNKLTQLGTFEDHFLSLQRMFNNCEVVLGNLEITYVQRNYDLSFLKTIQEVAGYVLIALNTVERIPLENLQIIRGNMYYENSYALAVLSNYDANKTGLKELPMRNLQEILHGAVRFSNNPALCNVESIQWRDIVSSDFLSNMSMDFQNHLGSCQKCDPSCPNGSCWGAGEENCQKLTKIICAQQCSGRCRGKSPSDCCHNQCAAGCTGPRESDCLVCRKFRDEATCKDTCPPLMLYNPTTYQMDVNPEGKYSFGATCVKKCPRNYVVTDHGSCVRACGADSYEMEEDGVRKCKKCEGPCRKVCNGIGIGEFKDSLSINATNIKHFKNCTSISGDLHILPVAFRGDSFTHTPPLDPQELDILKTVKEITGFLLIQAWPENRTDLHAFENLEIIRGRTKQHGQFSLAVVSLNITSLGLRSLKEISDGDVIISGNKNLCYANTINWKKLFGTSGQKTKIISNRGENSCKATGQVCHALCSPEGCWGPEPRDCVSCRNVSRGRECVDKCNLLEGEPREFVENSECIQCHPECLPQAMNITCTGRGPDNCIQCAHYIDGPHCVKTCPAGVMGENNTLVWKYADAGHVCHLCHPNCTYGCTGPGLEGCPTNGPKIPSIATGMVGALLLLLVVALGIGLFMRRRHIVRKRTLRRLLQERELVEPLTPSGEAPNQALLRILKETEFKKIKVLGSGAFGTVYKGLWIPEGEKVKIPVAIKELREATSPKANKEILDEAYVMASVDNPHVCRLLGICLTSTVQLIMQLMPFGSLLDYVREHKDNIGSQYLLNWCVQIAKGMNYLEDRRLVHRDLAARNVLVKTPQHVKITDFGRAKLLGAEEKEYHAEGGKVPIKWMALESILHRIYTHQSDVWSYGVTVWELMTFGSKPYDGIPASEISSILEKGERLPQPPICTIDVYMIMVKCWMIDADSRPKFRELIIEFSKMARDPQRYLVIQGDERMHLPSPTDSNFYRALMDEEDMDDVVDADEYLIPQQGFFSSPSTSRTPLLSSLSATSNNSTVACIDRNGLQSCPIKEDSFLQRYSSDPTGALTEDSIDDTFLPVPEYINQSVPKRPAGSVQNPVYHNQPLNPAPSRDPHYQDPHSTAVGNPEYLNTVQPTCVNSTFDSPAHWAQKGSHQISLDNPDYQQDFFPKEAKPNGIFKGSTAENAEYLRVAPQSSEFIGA

| IC50 | Structure (SMILES) |
| --- | --- |
| 11 nM | CCN1CCC(c2ccc(-c3cc4c(c(C(F)F)c3)CN(C(C(=O)Nc3nccs3)c3ncn5c3CCC5)C4=O)cc2)CC1 (racemic) [Example 4, (2RS)-2-[4-(Difluoromethyl)-6-[4-(1-ethyl-4-piperidyl)phenyl]-1-oxo-isoindolin-2-yl]-2-(6,7-dihydro-5H-pyrrolo[1,2-c]imidazol-1-yl)-N-thiazol-2-yl-acetamide] |
| 3 nM | O=C(Nc1nccs1)C(c1ncn2c1CCC2)N1Cc2c(cc(C#Cc3ccc(CN4CCC(CO)CC4)cc3)cc2C(F)F)C1=O (racemic) [Example 5, (2RS)-2-[4-(Difluoromethyl)-6-[2-[4-[[4-(hydroxymethyl)-1-piperidyl]methyl]phenyl]ethynyl]-1-oxo-isoindolin-2-yl]-2-(6,7-dihydro-5H-pyrrolo[1,2-c]imidazol-1-yl)-N-thiazol-2-yl-acetamide] |
| 18 nM | CCN1CCC(c2ccc(-c3cc4c(c(C(F)F)c3)CN(C(C(=O)Nc3nccs3)c3ncn5c3CCC5)C4=O)cc2)[C@@H](F)C1 (mixture of isomers) [Example 8, (2RS)-2-[4-(Difluoromethyl)-6-[4-1(3R,4R)-1-ethyl-3-fluoro-4-piperidyl]phenyl]-1-oxo-isoindolin-2-yl]-2-(6,7-dihydro-5H-pyrrolo[1,2-c]imidazol-1-yl)-N-thiazol-2-yl-acetamide and (2RS)-2-[4-(difluoromethyl)-6-[4-1(3S,4S)-1-ethyl-3-fluoro-4-piperidyl]phenyl]-1-oxo-isoindolin-2-yl]-2-(6,7-dihydro-5H-pyrrolo[1,2-c]imidazol-1-yl)-N-thiazol-2-yl-acetamide] |
| 1 nM | O=C(Nc1nccs1)C(c1ncn2c1CCC2)N1Cc2c(cc(C#Cc3ccc(CN4CCC(CO)CC4)cc3)cc2C(F)(F)F)C1=O (racemic) [Example 3, (2RS)-2-(6,7-Dihydro-5H-pyrrolo[1,2-c]imidazol-1-yl)-2-[6-[2-[4-[[4-(hydroxymethyl)-1-piperidyl]methyl]phenyl]ethynyl]-1-oxo-4-(trifluoromethyl)isoindolin-2-yl]-N-thiazol-2-yl-acetamide] |
| 20 nM | CCN1CCC(c2ccc(-c3cc4c(c(C(F)(F)F)c3)CN(C(C(=O)Nc3nccs3)c3ncn5c3CCC5)C4=O)cc2)CC1 (racemic) [Example 2, (2RS)-2-(6,7-Dihydro-5H-pyrrolo[1,2-c]imidazol-1-yl)-2-[6-[4-(1-ethyl-4-piperidyl)phenyl]-1-oxo-4-(trifluoromethyl)isoindolin-2-yl]-N-thiazol-2-yl-acetamide] |
| 2 nM | O=C(Nc1nccs1)C(c1ncn2c1C[C@@H](F)C2)N1Cc2c(cc(C#Cc3ccc(CN4CCCC(O)CC4)cc3)cc2C(F)(F)F)C1=O (mixture of isomers) [Example 11, (2RS)-2-[(6R)-6-fluoro-6,7-dihydro-5H-pyrrolo[1,2-c]imidazol-1-yl]-2-[6-[2-[4-[[(4RS)-4-hydroxyazepan-1-yl]methyl]phenyl]ethynyl]-1-oxo-4-(trifluoromethyl)isoindolin-2-yl]-N-thiazol-2-yl-acetamide] |
| 1 nM | O=C(Nc1nccs1)C(c1ncn2c1C[C@@H](F)C2)N1Cc2c(cc(C#Cc3ccc(CN4CCC(CO)CC4)cc3)cc2C(F)(F)F)C1=O (mixture of isomers) [Example 6, (2RS)-2-[(6R)-6-Fluoro-6,7-dihydro-5H-pyrrolo[1,2-c]imidazol-1-yl]-2-[6-[2-[4-[[4-(hydroxymethyl)-1-piperidyl]methyl]phenyl]ethynyl]-1-oxo-4-(trifluoromethyl)isoindolin-2-yl]-N-thiazol-2-yl-acetamide] |
| 16 nM | CCN1CCC(c2ccc(-c3cc4c(c(C(F)F)c3)CN(C(C(=O)Nc3nccs3)c3ncn5c3C[C@@H](F)C5)C4=O)cc2)CC1 (mixture of isomers) [Example 7, (2RS)-2-[4-(Difluoromethyl)-6-[4-(1-ethyl-4-piperidyl)phenyl]-1-oxo-isoindolin-2-yl]-2-[(6R)-6-fluoro-6,7-dihydro-5H-pyrrolo[1,2-c]imidazol-1-yl]-N-thiazol-2-yl-acetamide] |
| 3 nM | O=C(Nc1nccs1)C(c1ncn2c1C[C@@H](F)C2)N1Cc2c(cc(C#Cc3ccc(CN4CC5(CC(O)C5)C4)cc3)cc2C(F)(F)F)C1=O (mixture of isomers) [Example 9, (2RS)-2-[(6R)-6-Fluoro-6,7-dihydro-5H-pyrrolo[1,2-c]imidazol-1-yl]-2-[6-[2-[4-[(6-hydroxy-2-azaspiro[3.3]heptan-2-yl)methyl]phenyl]ethynyl]-1-oxo-4-(trifluoromethyl)isoindolin-2-yl]-N-thiazol-2-yl-acetamide] |
| 2 nM | O=C(Nc1nccs1)C(c1ncn2c1C[C@@H](F)C2)N1Cc2c(cc(C#Cc3ccc(CN4CCC(CO)CC4)cc3)cc2C(F)F)C1=O (mixture of isomers) [Example 10, (2RS)-2-[4-(Difluoromethyl)-6-[2-[4-[[4-(hydroxymethyl)-1-piperidyl]methyl]phenyl]ethynyl]-1-oxo-isoindolin-2-yl]-2-[(6R)-6-fluoro-6,7-dihydro-5H-pyrrolo[1,2-c]imidazol-1-yl]-N-thiazol-2-yl-acetamide] |
